Source: US6838477B2, “Lactacystin analogs” (President and Fellows of Harvard College, priority 1995, dated 2005)

Assays:
[1] = test system: p105 to p50 processing; test: Proteasome dependent p105 to p50 processing in transfected COS cells (pulse-chase); format: cell-based, African green monkey; settings: 1 h pretreatment, 2 hour chase
Method: COS cells were plated onto 100 mm dishes, then, with DEAE-Destran, either mock transfected, or transfected with 3 μg of pcDNA plasmid containing the human p105 cDNA. Forty-eight hrs after transfection, cells were pretreated for 1 hour with 0.5% DMSO, 50 μM calpain inhibitor II, 50 μM MG132, or 10 μM β-lactone. Cells were then pulse labelled with 250 uCi/plate of ^35S-methionine/cysteine for 15 minutes, and either harvested immediately or followed by a 2 hour chase with excess unlabelled methionine and cysteine. Cells were then lysed with SDS/Tris, and proteins were immunoprecipitated with anti-p50 antibodies (recognize the N-terminal half of the p105 protein). These proteins were then separated on a 10% SDS-polyacrylamide gel, which was then fixed, dried, and exposed to autoradiographic film.

[2] = biological target: T1, Trypsin (Bos taurus, UniProt P00760); test: Selectivity of protease inhibition: trypsin; format: biochemical; settings: concentration not given
T1 construct: gene PRSS1
T1 sequence (P00760 24-246): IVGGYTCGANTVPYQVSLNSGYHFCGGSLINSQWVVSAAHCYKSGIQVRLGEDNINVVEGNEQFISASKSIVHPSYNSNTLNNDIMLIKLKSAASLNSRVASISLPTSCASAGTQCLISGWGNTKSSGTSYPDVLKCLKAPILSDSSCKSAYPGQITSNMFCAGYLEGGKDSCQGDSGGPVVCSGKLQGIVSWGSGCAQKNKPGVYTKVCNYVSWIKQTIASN

[3] = biological target: Cathepsin B (Homo sapiens, UniProt P07858); test: Selectivity of protease inhibition: cathepsin B; format: biochemical; settings: concentration not given
[4] = biological target: T2, 20S proteasome chymotrypsin-like activity (Bos taurus, UniProt Q32KL2); test: Kinetics of inhibition of 20S proteasome chymotrypsin-like activity (Suc-LLVY-AMC); format: biochemical, bovine
T2 construct: from tissue; host or cells: bovine brain
Method: (§1) Experiments involving the proteasome were performed as follows: 20S proteasome (˜5 ng/μl) in 10 mM Tris-HCl, pH 7.5, 1 mM EDTA was incubated at 25° C. in the presence of lactacystin or lactacystin analogs in DMSO or MeOH [not exceeding 5% (v/v)]. Aliquots for fluorescence assay were removed at various times following addition of compound and diluted in 10 mM Tris-HCl, pH 7.5, 1 mM EDTA containing fluorogenic peptide substrates (100 μM final). Suc-LLVY-AMC, Cbz-GGR-βNA and […] (AMC=7-amido-4-methylcoumarin; βNA=β-naphthylamide) were used to assay for the chymotrypsin-like, trypsin-like and peptidylglutamyl-peptide hydrolyzing activities, respectively.
(§2) Fluorescent emission at 460 nm with excitation at 380 nm was measured for AMC-containing substrates, and emission at 410 nm with excitation at 335 nm was measured for βNA-containing substrates. The fluorescence assays were conducted at 25° C., each experiment was performed at least three times, and values represent mean±standard deviation.
(§3) The reversibility of the inhibitory effects was assessed by measuring residual peptidase activity after removal of excess inhibitor by extensive serial dilution/ultrafiltration.

[5] = biological target: T3, Calpain II (Homo sapiens, UniProt P17655); test: Selectivity of protease inhibition: calpain II; format: biochemical; settings: concentration not given
T3 sequence (P17655 1-700): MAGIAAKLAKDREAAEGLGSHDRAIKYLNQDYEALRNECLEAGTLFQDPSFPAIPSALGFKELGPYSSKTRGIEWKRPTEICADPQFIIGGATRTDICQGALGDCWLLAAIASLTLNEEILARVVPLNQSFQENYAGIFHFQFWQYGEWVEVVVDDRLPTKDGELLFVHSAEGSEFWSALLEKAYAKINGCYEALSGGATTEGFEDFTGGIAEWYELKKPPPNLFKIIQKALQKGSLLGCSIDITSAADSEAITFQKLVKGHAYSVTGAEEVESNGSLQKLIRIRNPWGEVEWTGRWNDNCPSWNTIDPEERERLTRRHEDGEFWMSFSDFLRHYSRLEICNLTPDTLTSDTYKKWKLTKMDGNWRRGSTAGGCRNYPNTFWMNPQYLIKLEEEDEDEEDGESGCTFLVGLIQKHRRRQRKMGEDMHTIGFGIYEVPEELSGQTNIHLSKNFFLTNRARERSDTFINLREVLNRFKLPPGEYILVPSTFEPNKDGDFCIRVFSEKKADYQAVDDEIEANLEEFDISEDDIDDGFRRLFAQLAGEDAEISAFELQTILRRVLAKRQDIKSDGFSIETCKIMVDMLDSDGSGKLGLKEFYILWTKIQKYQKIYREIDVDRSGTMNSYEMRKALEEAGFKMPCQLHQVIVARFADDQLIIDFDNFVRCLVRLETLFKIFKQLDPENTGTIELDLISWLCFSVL
T3 sequence (P04632 1-268 partner): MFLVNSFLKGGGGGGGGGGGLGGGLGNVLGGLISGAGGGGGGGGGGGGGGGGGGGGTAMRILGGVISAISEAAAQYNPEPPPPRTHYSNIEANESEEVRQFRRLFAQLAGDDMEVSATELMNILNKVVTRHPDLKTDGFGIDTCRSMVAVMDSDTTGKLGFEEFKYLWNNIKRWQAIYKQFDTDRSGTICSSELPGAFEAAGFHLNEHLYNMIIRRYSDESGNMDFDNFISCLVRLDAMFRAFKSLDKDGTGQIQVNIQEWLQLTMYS

[6] = biological target: T4, 20S proteasome trypsin-like activity (Bos taurus, UniProt Q2TBP0); test: Kinetics of inhibition of 20S proteasome trypsin-like activity (Cbz-GGR-βNA); format: biochemical, bovine
T4 construct: from tissue; host or cells: bovine brain
Method: as §1, §2, §3

[7] = biological target: α-Chymotrypsin (Bos taurus, UniProt P00766, DEL14-15/DEL147-148); test: Selectivity of protease inhibition: α-chymotrypsin; format: biochemical; settings: concentration not given
[8] = residual activity after removal of excess inhibitor by serial dilution/ultrafiltration

Compound: CC(C)[C@H](O)[C@@]12NC(=O)[C@H](C)[C@@H]1OC2=O [β-Lactone, clasto-lactacystin β-lactone]
- processing of p105 to p50 (level of p50) ([1]; 10 μM): only a slight effect
- processing of p105 to p50 (appearance of p50) ([1]; 50 μM): complete inhibition
- inhibition of trypsin activity [2]: do not inhibit
- inhibition of cathepsin activity [3]: do not inhibit
- κassoc = κobs/[I], Chymotrypsin-like activity (Suc-LLVY-AMC) ([4]; compound 1 μM, 25° C.): 3059 ± 478 s^−1M^−1
- chymotrypsin-like activity inhibited faster than by lactacystin ([4]; relative to lactacystin): 15-20 times
- reversibility of inhibition of chymotrypsin-like activity [4, 8]: irreversibly
- inhibition of calpain II activity [5]: do not inhibit
- κassoc = κobs/[I], Trypsin-like activity (Cbz-GGR-βNA) ([6]; compound 5 μM, 25° C.): 208 ± 21 s^−1M^−1
- trypsin-like activity inhibited faster than by lactacystin ([6]; relative to lactacystin): 15-20 times
- reversibility of inhibition of trypsin-like activity [6, 8]: irreversibly
- inhibition of α-chymotrypsin activity [7]: do not inhibit
